Results from US10221459B2, “Compositions and methods of treating cancer harboring PIKC3A mutations” (Case Western Reserve University, priority 2014, dated 2019).

Experiments:
HCT116 xenograft tumors = assay: Xenograft study, HCT116 (parental cells); type: in vivo, mice; conditions: for tumor regression: alone or in combination; for combinational effect with AOA: drug combined with AOA (10 mg/kg), HCT116 xenograft
From the text: (§1) FIGS. 4(A-D) illustrate plots showing aminooxyacetate (AOA) inhibits xenograft tumor growth of PIK3CA mutant CRCs but not PIK3CA WT CRCs. (A-B) AOA inhibits growth of xenograft formed by PIK3CA mutant clones but not PIK3CA WT clones. (A) Clones derived from HCT116 cells; (B) Clones derived from DLD1. (C) AOA inhibits growth of xenograft tumors formed by four CRC cell lines harboring PIK3CA mutations. […] N=5 mice in each experimental group. Data are presented as mean±SEM.
FIGS. 10(A-B) illustrate plots showing AOA synergizes with 5-FU to inhibit growth of HCT116 xenograft tumors.
FIGS. 12(A-B) illustrate images and a plot showing the combination of CB-839 and 5-FU shrinks HCT116 xenograft tumors.
(§2) Animal experiments were approved by the Case Western Reserve University Animal Care and Use Committee. As described in, 3 million cells were injected subcutaneously into the flanks of 4 to 6-week-old female athymic nude mice. Mice were randomly assigned into treatment groups (5 mice/group). When average tumor volume reached 100 mm3, mice were treated with vehicle control, 5 mg/kg or 10 mg/kg of AOA every day per IP (intraperitoneal) injection. Tumor volumes were measured with an electronic caliper and calculated as length×width^2/2.

[1] = system: HCT116 PIK3CA mutant and WT clones; assay: Growth inhibition in tissue culture, HCT116 PIK3CA mutant vs WT clones; type: cell-based; conditions: for sensitivity to growth inhibition, PIK3CA-/mut vs PIK3CA WT/- cells: HCT116, various doses
From the text: (§3) FIGS. 9(A-C) illustrate graphs and an immunoblot showing aminooxyacetate (AOA) inhibits PIK3CA mutant tumor growth. (A) IC50 of AOA in HCT116 and DLD1 PIK3CA WT and mutant clones. (B) Body weights of the mice with xenograft established from the indicated CRC cells before and after AOA treatment. N=5 mice in each group. (C) Western blot analyses of GPT2 protein levels in the indicated cell lines.
(§4) To test if PIK3CA mutations render cancer cell sensitive to these inhibitors, we treated PIK3CA-/mut, PIK3CA WT/-HCT116 and DLD1 colon cancer cells with various doses of EGCG and BPTES.

[2] = system: DLD1 PIK3CA mutant and WT clones; assay: Growth inhibition in tissue culture, DLD1 PIK3CA mutant vs WT clones; type: cell-based; conditions: for sensitivity to growth inhibition, PIK3CA-/mut vs PIK3CA WT/- cells: DLD1, various doses
From the text: as §3, §4

[3] = system: HCT116 PIK3CA mutant clone xenograft; assay: Xenograft study, HCT116 PIK3CA mutant clone; type: in vivo; conditions: HCT116 PIK3CA mutant clone in nude mice; AOA 5 or 10 mg/kg every day IP
From the text: as §1, §2

[4] = system: DLD1 PIK3CA mutant clone xenograft; assay: Xenograft study, DLD1 PIK3CA mutant clone; type: in vivo; conditions: DLD1 PIK3CA mutant clone in nude mice; AOA 5 or 10 mg/kg every day IP
From the text: as §1, §2

[5] = system: HCT116 PIK3CA WT clone xenograft; assay: Xenograft study, HCT116 PIK3CA WT clone; type: in vivo; conditions: isogenic HCT116 PIK3CA WT clone in nude mice; AOA every day IP
From the text: as §1, §2

[6] = system: DLD1 PIK3CA WT clone xenograft; assay: Xenograft study, DLD1 PIK3CA WT clone; type: in vivo; conditions: isogenic DLD1 PIK3CA WT clone in nude mice; AOA every day IP
From the text: as §1, §2

DLD1 xenograft tumors = assay: Xenograft study, DLD1 (parental cells); type: in vivo, mice; conditions: DLD1 parental cells (PIK3CA mutant); AOA every day IP
From the text: as §1, §2

RKO xenograft tumors = assay: Xenograft study, RKO; type: in vivo, mice; conditions: RKO (PIK3CA mutant); AOA every day IP
From the text: as §1, §2

HT29 xenograft tumors = assay: Xenograft study, HT29; type: in vivo, mice; conditions: HT29 (PIK3CA mutant); AOA every day IP
From the text: as §1, §2

SW480 xenograft tumors = assay: Xenograft study, SW480; type: in vivo, mice; conditions: SW480 (WT PIK3CA); AOA every day IP
From the text: as §1, §2

LOVO xenograft tumors = assay: Xenograft study, LOVO; type: in vivo, mice; conditions: LOVO (WT PIK3CA); AOA every day IP
From the text: as §1, §2

[7] = Body weights of xenograft mice before and after AOA treatment; type: in vivo; conditions: xenograft mice treated with AOA
From the text: as §3, §2

Recombinant GPT2 = biological target: T1, Recombinant GPT2 (Homo sapiens, UniProt Q8TD30); assay: GPT2 enzymatic assay (colorimetric pyruvate detection); type: biochemical; conditions: recombinant GPT2 mixed with α-KG and alanine; read-out: IC50 of AOA to GPT2
T1 sequence (Q8TD30 1-523): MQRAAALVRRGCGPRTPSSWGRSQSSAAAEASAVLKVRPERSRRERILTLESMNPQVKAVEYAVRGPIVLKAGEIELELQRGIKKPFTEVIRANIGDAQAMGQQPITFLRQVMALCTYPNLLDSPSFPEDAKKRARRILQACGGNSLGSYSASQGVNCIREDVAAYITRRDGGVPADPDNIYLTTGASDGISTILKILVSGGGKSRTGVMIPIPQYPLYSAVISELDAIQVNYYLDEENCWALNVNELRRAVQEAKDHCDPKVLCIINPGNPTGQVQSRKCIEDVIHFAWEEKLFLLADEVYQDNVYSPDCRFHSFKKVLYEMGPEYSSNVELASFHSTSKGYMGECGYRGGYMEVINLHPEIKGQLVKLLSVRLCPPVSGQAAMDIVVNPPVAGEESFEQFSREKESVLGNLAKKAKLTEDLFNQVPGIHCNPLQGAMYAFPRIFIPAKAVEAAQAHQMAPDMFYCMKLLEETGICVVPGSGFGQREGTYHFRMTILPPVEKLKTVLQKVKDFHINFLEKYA
Protocol: (§5) FIGS. 11(A-C) illustrate plots and graph showing (A) enzyme kinetics of GPT2. Recombinant GPT2 was mixed with α-KG and alanine. The product pyruvate was detected by a colorimetric assay. (B) IC50 of AOA to GPT2. (C) Relative amounts of α-KG. Xenograft tumors were treated with 10 mg/kg of AOA or vehicle. α-KG in a untreated tumor was set as 100%.
(§6) However, AOA is pan-transaminase inhibitor.

GPT activity = GPT activity in treated xenograft tumors assayed by amounts of α-KG; type: in vivo, mice; conditions: Mus musculus, AOA 10 mg/kg
Protocol: as §5, §6

[8] = system: ATF4 protein levels in the HCT116 PIK3CA mutant clone; assay: ATF4 protein levels after inhibitor exposure (immunoblot); type: cell-based; conditions: Western blot (FIG. 6C)
Protocol: Ubiquitination of endogenous ATF4 (A). Ubiquitination of ectopically expressed Flag-tagged ATF4 and HA-tagged ubiquitin (B).
Cells were lysed in RIPA buffer [10 mM Tris (pH 7.4), 150 mM NaCl, 5 mM EDTA (pH 8.0), 0.1% SDS, 1% Triton-X100, 1 mM DTT, 1 mM PMSF, complete Protease Inhibitor Cocktail tablet (Roche); supplemented with phosphatase inhibitors (1 mM Na3VO4, 50 mM NaF, 1 mM β-glycerophosphate, 20 mM sodium pyrophosphate)]. Lysates were then cleared by centrifugation at 14,000 rpm for 10 min and protein concentration in supernatants was determined by the BCA protein assay kit (Pierce). Equal amounts of total protein were used for immunoblotting. For immunoprecipitation (IP), cells were lysed as mentioned above. Cleaned cell lysate incubated with antibody for one hour, and then protein A and/or protein G for one hour. Protein A/G beads were washed with lysis buffer three times, and then boiled with SDS-loading buffer followed with immunoblotting.

[9] = HCT116 (PIK3CA mutant CRC) xenograft
[10] = single agent, HCT116 (PIK3CA mutant CRC) xenograft

## O=c1[nH]cc(F)c(=O)[nH]1 [5-FU, 5-fluorouracil]
HCT116 xenograft tumors; [9]
  tumor regression: neither induced tumor regression
HCT116 xenograft tumors; [10]
  xenograft tumor growth: inhibited tumor growth to various extents

## NOCC(=O)O [AOA, aminooxyacetate]
[1]; HCT116 clones
  sensitivity to AOA treatment, PIK3CA mutant clones vs WT clones: more sensitive to AOA treatment than the WT clones
[2]; DLD1 clones
  sensitivity to AOA treatment, PIK3CA mutant clones vs WT clones: more sensitive to AOA treatment than the WT clones
[3]
  xenograft tumor growth: significantly inhibited the growth
[4]
  xenograft tumor growth: significantly inhibited the growth
[5]
  xenograft tumor growth: had no effect
[6]
  xenograft tumor growth: had no effect
HCT116 xenograft tumors; HCT116 parental cells (PIK3CA mutant), AOA every day IP
  xenograft tumor growth: inhibited xenograft tumor growth
DLD1 xenograft tumors
  xenograft tumor growth: inhibited xenograft tumor growth
RKO xenograft tumors
  xenograft tumor growth: inhibited xenograft tumor growth
HT29 xenograft tumors
  xenograft tumor growth: inhibited xenograft tumor growth
SW480 xenograft tumors
  xenograft tumor growth: had no effect on xenograft tumor growth
LOVO xenograft tumors
  xenograft tumor growth: had no effect on xenograft tumor growth
[7]
  weight loss of treated mice: No weight loss was observed
Recombinant GPT2
  IC50: 0.98 µM
GPT activity
  inhibition at 10 mg/kg: ~30%

## CC(C)CCN1c2nc(Nc3cc(F)c(O)c(F)c3)ncc2N(C)C(=O)C1C (stereo not shown) [BI-D1870]
[8]
  ATF4 protein levels: reduced ATF4 protein levels

## O=C(Cc1ccccc1)Nc1nnc(CCSCCc2nnc(NC(=O)Cc3ccccc3)s2)s1 [BPTES]
[1]
  sensitivity to growth inhibition, PIK3CA-/mut vs PIK3CA WT/- cells: more sensitive to growth inhibition
[2]
  sensitivity to growth inhibition, PIK3CA-/mut vs PIK3CA WT/- cells: more sensitive to growth inhibition

## O=C(Cc1cccc(OC(F)(F)F)c1)Nc1ccc(CCCCc2nnc(NC(=O)Cc3ccccn3)s2)nn1 [CB-839]
HCT116 xenograft tumors; [9]
  tumor regression: neither induced tumor regression
HCT116 xenograft tumors; [10]
  xenograft tumor growth: inhibited tumor growth to various extents

## Cn1c(=O)n(-c2ccc(C(C)(C)C#N)cc2)c2c3cc(-c4cnc5ccccc5c4)ccc3ncc21 [DEZ235]
[8]
  ATF4 protein levels: reduced ATF4 protein levels

## O=C(O[C@@H]1Cc2c(O)cc(O)cc2O[C@@H]1c1cc(O)c(O)c(O)c1)c1cc(O)c(O)c(O)c1 [EGCG, Epigallocatechin gallate]
[1]
  sensitivity to growth inhibition, PIK3CA-/mut vs PIK3CA WT/- cells: more sensitive to growth inhibition
[2]
  sensitivity to growth inhibition, PIK3CA-/mut vs PIK3CA WT/- cells: more sensitive to growth inhibition

## Cc1ccc(-c2c(C(=O)CF)n(CCCO)c3ncnc(N)c23)cc1 [FMK]
[8]
  ATF4 protein levels: reduced ATF4 protein levels

## CCn1c(-c2nonc2N)nc2c(C#CC(C)(C)O)ncc(OC[C@H]3CCCNC3)c21 [GSK690693]
[8]
  ATF4 protein levels: neither an AKT inhibitor (GSK690693) nor an inhibitor (CHIR-99021) of GSK3β(a known downstream effector of AKT) had any effect on ATF4 protein levels

## CNc1nc(-c2ccc3c(N)n[nH]c3c2)cc(N2C[C@@H](C(=O)NC3CCCCC3)CC[C@H]2C)n1 [GSK2334470]
[8]
  ATF4 protein levels: reduced ATF4 protein levels

## CCc1c2c(nc3ccc(OC(=O)N4CCC(N5CCCCC5)CC4)cc13)-c1cc3c(c(=O)n1C2)COC(=O)[C@]3(O)CC [irinotecan]
HCT116 xenograft tumors
  combinational effect with AOA: none of the other drug showed any combinational effect with AOA

## O=C1[O][Pt]2([NH][C@@H]3CCCC[C@H]3[NH]2)[O]C1=O [oxaliplatin]
HCT116 xenograft tumors
  combinational effect with AOA: none of the other drug showed any combinational effect with AOA

## CNC(=O)c1cc(Oc2ccc(NC(=O)Nc3ccc(Cl)c(C(F)(F)F)c3)c(F)c2)ccn1 [regorafenib]
HCT116 xenograft tumors
  combinational effect with AOA: none of the other drug showed any combinational effect with AOA
